US6337397B1, “Pyrimidine derivatives and their salts, useful for making benzoxazepine derivatives” (Suntory Limited, priority 1995, dated 2002)
Like-named read-outs stand apart in the source and are kept apart here.

Assays:
dopamine D2 receptor = biological target: T1, dopamine D2 receptor (Rattus norvegicus, UniProt P61169); assay: Affinity with dopamine D2 receptor, [3H]Raclopride binding; parameters: species or system male Wistar rats; settings: 1.0 nM [3H]Raclopride, rat corpus striatum preparation, 25° C., 60 minutes
T1 construct: the corpus striatums excised from male Wistar rats were homogenized; from tissue; host or cells: rat corpus striatum membrane homogenate
T1 sequence (P61169 whole entry): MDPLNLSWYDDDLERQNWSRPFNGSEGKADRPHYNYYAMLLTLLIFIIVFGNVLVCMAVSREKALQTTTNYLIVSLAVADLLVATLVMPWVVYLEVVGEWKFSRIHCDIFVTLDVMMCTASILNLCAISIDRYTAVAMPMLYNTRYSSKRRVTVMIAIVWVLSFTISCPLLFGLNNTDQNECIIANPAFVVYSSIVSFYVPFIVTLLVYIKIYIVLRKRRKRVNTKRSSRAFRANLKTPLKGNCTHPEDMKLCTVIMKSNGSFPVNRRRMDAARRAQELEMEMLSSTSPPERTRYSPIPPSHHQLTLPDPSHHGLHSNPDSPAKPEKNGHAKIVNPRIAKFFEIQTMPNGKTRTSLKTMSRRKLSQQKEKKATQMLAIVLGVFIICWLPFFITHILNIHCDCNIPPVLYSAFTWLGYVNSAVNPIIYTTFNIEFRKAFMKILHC
Procedure: The affinity of the compounds of the general formulas (I), (II), and (III) with a dopamine D2 receptor was evaluated in accordance with the method of Kakohler et al. (Biochem. Pharmacol., vol. 34, pp. 2251-2259, 1985). That is, the corpus striatums excised from male Wistar rats were homogenized with the addition of 120 mM sodium chloride, 5 mM potassium chloride, 2 mM calcium chloride, 1 mM magnesium chloride, and 0.01% ascorbic acid contained in 50 mM tris-phosphate buffer (pH 7.7). The homogenate was centrifuged at […] and 35000×g for 10 minutes. The same buffer was added to the resultant precipitate,then this was homogenized again and was similarly centrifuged to obtain the precipitate. The same buffer was added to this precipitate which was then again homogenized to prepare the dopamine D2 receptor.
For the binding experiment, use was made of 1.0 nM of [3H]3,5-dichloro-N-[(1-ethyl-2-pyrrolidinyl)methyl]-6-hydroxy-o-anisamide (Raclopride), various concentrations of test samples were added to a system of 0.34 mg/ml of protein or a total of 0.25 ml, incubation was performed at 25° C. for 60 minutes, then the radioactivity was measured in the same way as in the Evaluation Example 1 to find the degree of binding.
The 50% inhibiting concentration of binding affinity (IC50) was calculated from the degrees of binding at various concentrations of the added samples. […] The IC50 values of typical compounds are shown together with the IC50 values for the serotonin receptor.

[1] = biological target: T2, serotonin 5-HT1A receptor (Rattus norvegicus, UniProt P19327); assay: Affinity with serotonin receptor, [3H]8-OH-DPAT binding; parameters: species or system male Wistar rats; settings: for D2/5-HT1A: ratio of IC50 (D2) to IC50 (5-HT1A)
T2 construct: the hippocampuses extracted from male Wistar rats were homogenized; from tissue; host or cells: rat hippocampus membrane homogenate
T2 sequence (P19327 1-422): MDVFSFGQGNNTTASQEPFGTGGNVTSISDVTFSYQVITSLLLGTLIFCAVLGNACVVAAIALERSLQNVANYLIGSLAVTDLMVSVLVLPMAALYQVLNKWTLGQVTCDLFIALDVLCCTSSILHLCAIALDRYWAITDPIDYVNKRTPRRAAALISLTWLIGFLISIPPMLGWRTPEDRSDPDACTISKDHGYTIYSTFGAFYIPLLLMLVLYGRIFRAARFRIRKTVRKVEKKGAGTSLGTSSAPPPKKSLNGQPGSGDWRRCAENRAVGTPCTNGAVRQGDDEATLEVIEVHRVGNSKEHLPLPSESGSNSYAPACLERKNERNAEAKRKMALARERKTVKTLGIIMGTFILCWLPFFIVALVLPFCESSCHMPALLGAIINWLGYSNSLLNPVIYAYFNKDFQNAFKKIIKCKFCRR
Procedure: The affinity of the compounds of the general formulas (I), (II), and (III) with a serotonin receptor was evaluated in accordance with the method of S. T. Peuroutka et al. (J. Neurochem., vol. 47, pp. 529-540, 1986). That is, the hippocampuses extracted from male Wistar rats were homogenized while adding 50 mM tris-phosphate buffer (pH 7.7). The homogenate was centrifuged at […] and 40000×g for 10 minutes. The same buffer was added to the obtained precipitate, then this was homogenized again and was similarly centrifuged to obtain the precipitate. This homogenization-centrifugation operation was repeated two times to obtain a final precipitate to which was then added 10 uM of N-methyl-N-2-propynylbenzylamine (Pargyline), 4 mM of calcium chloride, and 0.1% ascorbic acid contained in a 50 mM tris-phosphate buffer (ph 7.7). This was then homogenized to prepare the serotonin receptor.
For the binding experiment, 0.4 nM of [3H]2-di-n-propylamino-8-hydroxy-1,2,3,4-tetrahydronapthalene (8-DPAT; 8-hydroxy-N,N-dipropyl-2-aminotetetrilin) was used, various concentrations of test samples were added to a system of 0.25 mg/ml of protein or a total of 0.25 ml, and these were incubated at 25° C. for 30 minutes. A Whatman GF/C filter was used to filter each of the reaction solutions, then the filter was washed by 20 mM tris-phosphate buffer (pH 7.7). The serotonin receptor was trapped by the filter and the radio activity of the 8-OH-DAPT bonded to it was measured to find the degree of binding. The 50% inhibiting concentration of binding affinity (IC50) was calculated from the degrees of binding in the various sample concentrations. […] The IC50 values of typical compounds are shown together with the IC50 values with respect to the dopamine D2 receptor.

Wistar male rats = assay: Ischemic brain tissue damage, transient right middle cerebral artery occlusion (MCAO) model; format: in vivo; settings: Rattus norvegicus, sc, 240 h; s.c., immediately after occlusion; 60 minutes occlusion; brain tissue damage 10 days after restart of blood flow (number of benzodiazepine bindings); read-out: Minimum effective dosage
Procedure: The evaluation of the efficacy on ischemic brain damage of the compounds of the general formulae (I), (II), and (III) was performed using the transient right middle cerebral artery occlusion (MCAO) model of Koizumi et al. (Jap. J. Stroke, vol. 8, pp. 1 to 8, 1986). That is, 10 to 11 week old Wistar male rats were used and the right middle cerebral artery was temporarily obstructed for 60 minutes. 10 days after the restart of the blood flow, the brains were excised and the degree of brain tissue damage of the cerebral cortex and corpus striatum of the obstructed side were evaluated by the damage marker of the number of benzodiazepine bindings. The tested drugs were dissolved in physiological saline and administered subcutaneously at the backs of the rats immediately after the right middle cerebral artery occlusion. As a control, physiological saline of […] body weight was similarly administered.

male Wistar rats = assay: Anticonflict action, NaCl-Lick conflict method; format: in vivo; settings: Rattus norvegicus, po, 1 hour before the test; number of licks in 5 minutes of 2% saline; rats deprived of water for 48 hours; read-out: Minimum effective dosage
Procedure: The anticonflict action of the compounds of the general formulae (I), (II), and (III) was evaluated in accordance with the NaCl-Lick conflict method of Tanga et al. (Pharmacol., Biochem., Behav., vol. 32, pp. 773-776, 1989). That is, six-week old male Wistar rats in groups of six to 10 were deprived of water for 48 hours and placed in an experimental apparatus placed in a soundproof box (apparatus made of acrylic resin, 20×20×30 cm, provided with a drinking outlet having a diameter of 1 cm at height of 8 cm from the floor, designed to be able to measure the number of drops per unit hour by a drinkometer), and the anticonflict action of the medicament was evaluated using as an indicator the number of drops (number of licks) in 5 minutes from the start of drinking of 2% saline. The tested medicament was orally administered in an amount of 0.2 ml/100 g body weight 1 hour before the start of the test.

[2] = 0.4 nM [3H]8-OH-DPAT, rat hippocampus preparation, 25° C., 30 minutes, read-out: IC50 (5-HT1A)

Row | IC50 [1, 2] | Compound | IC50 (dopamine D2 receptor) | IC50 [1] | D2/5-HT1A [1] | minimal effective dose (Wistar male rats) | minimal effective dose (male Wistar rats)
1 |  | CC1=COc2ccccc2C(=O)N1CCCCN1CC=C(c2ncccn2)CC1 [Example 53, 4,5-dihydro-3-methyl-4-(4-(4-(2-pyrimidinyl)-1,2,5,6-tetrahydropyridin-1-yl)butyl)-1,4-benzoxazepin-5-one] | 979 nM | 11 nM | 89 |  | 
2 |  | CC1=COc2ccc(C)cc2C(=O)N1CCCCN1CC=C(c2ccccn2)CC1 [Example 74, 4,5-dihydro-3,7-dimethyl-4-(4-(4-(2-pyridyl)-1,2,5,6-tetrahydropyridin-1-yl)butyl)-1,4-benzoxazepin-5-one] | 338 nM | 4.41 nM | 77 |  | 
3 |  | COc1ccc2c(c1)OC=C(Cl)N(CCCCN1CC=C(c3ncccn3)CC1)C2=O [Example 61, 3-chloro-4,5-dihydro-8-methoxy-4-(4-(4-(2-pyrimdinyl)-1,2,5,6-tetrahydropyridin-1-yl)butyl)-1,4-benzoxazepin-5-one] | 256 nM | 0.68 nM | 376 | 1 mg/kg | 
4 |  | CC1=COc2ccc(F)cc2C(=O)N1CCCCN1CC=C(c2ncccn2)CC1 [Example 55, 4,5-dihydro-7-fluoro-3-methyl-4-(4-(4-(2-pyrimidinyl)-1,2,5,6-tetrahydropyridin-1-yl)butyl)-1,4-benzoxazepin-5-one] | 1250 nM | 13 nM | 96 |  | 
5 | 1.2 nM | O=C1c2ccc(Cl)cc2OC=C(Cl)N1CCCCN1CCN(c2ccccn2)CC1 [Example 48, 3,8-dichloro-4,5-dihydro-4-(4-(4-(2-pyridyl)piperazin-1-yl)butyl)-1,4-benzoxazepin-5-one] | 233 nM |  | 194 | 1 mg/kg | 30 mg/kg
6 |  | O=C1c2ccc(Cl)cc2OC=C(Cl)N1CCCCN1CC=C(c2ncccn2)CC1 [Example 59, 3,8-dichloro-4,5-dihydro-4-(4-(4-(2-pyrimidinyl)-1,2,5,6-tetrahydropyridin-1-yl)butyl)-1,4-benzoxazepin-5-one] | 341 nM | 0.65 nM | 525 | 1 mg/kg | 
7 |  | O=C1c2ccc(Cl)cc2OC=C(Cl)N1CCCCN1CC=C(c2ccccn2)CC1 [Example 66, 3,8-dichloro-4,5-dihydro-4-(4-(4-(2-pyridyl)-1,2,5,6-tetrahydropyridin-1-yl)butyl)-1,4-benzoxazepin-5-one] | 128 nM | 0.58 nM | 221 |  | 
8 | 0.44 nM | O=C1c2ccc(Cl)cc2OC=C(Cl)N1CCCCN1CCC(c2ccccn2)CC1 [Example 67, 3,8-dichloro-4,5-dihydro-4-(4-(4-(2-pyridyl)piperidin-1-yl)butyl)-1,4-benzoxazepin-5-one] | 359 nM |  | 816 |  | 
9 | 3.8 nM | O=C1c2ccccc2OC=C(Cl)N1CCCCN1CCN(c2ncnc3ccccc23)CC1 [Example 47, 3-chloro-4,5-dihydro-4-(4-(4-(4-quinazolyl)piperazin-1-yl)butyl)-1,4-benzoxazepin-5-one] | 1390 nM |  | 366 |  | 
10 | 5.81 nM | O=C1c2ccccc2OC=C(Cl)N1CCCCN1CCC(c2ncccn2)CC1 [Example 57, 3-chloro-4,5-dihydro-4-(4-(4-(2-pyrimidinyl)piperidin-1-yl)butyl)-1,4-benzoxazepin-5-one] | 1800 nM |  | 310 |  | 
11 |  | CCC1=COc2ccccc2C(=O)N1CCCCN1CCN(c2ccccn2)CC1 [Example 36, 4,5-dihydro-3-ethyl-4-(4-(4-(2-pyridyl)piperazin-1-yl)butyl)-1,4-benzoxazepin-5-one] |  |  |  |  | 30 mg/kg
12 | 0.88 nM | Cc1ccc2c(c1)C(=O)N(CCCCN1CCN(c3ncccn3)CC1)C(Cl)=CO2 [Example 49, 3-chloro-4,5-dihydro-7-methyl-4-(4-(4-(2-pyrimidinyl)-piperazin-1-yl)butyl)-1,4-benzoxazepin-5-one] | 405 nM |  | 460 |  | 
13 |  | CC1=COc2ccccc2C(=O)N1CCCCN1CCC(c2ncccn2)CC1 [Example 54, 4,5-dihydro-3-methyl-4-(4-(4-(2-pyrimidinyl)piperidin-1-yl)butyl)-1,4-benzoxazepin-5-one] |  |  |  |  | 10 mg/kg
14 | 1.11 nM | O=C1c2ccc(Cl)cc2OC=C(Cl)N1CCCCN1CCC(c2ncccn2)CC1 [Example 60, 3,8-dichloro-4,5-dihydro-4-(4-(4-(2-pyrimidinyl)piperidin-1-yl)butyl)-1,4-benzoxazepin-5-one] | 1280 nM |  | 1153 | 1 mg/kg | 
15 | 1.7 nM | CC1=COc2ccc(F)cc2C(=O)N1CCCCN1CCN(c2cccc(Cl)n2)CC1 [Example 41, 4-(4-(4-(2-chloropyridin-6-yl)piperazin-1-yl)butyl)-4,5-dihydro-7-fluoro-3-methyl-1,4-benzoxazenin-5-one] | 266 nM |  | 156 |  | 10 mg/kg
16 |  | CC1=COc2ccccc2C(=O)N1CCCCN1CC=C(c2ccccn2)CC1 [Example 84, 4,5-dihydro-3-methyl-4-(4-(4-(2-pyridyl)-1,2,5,6-tetrahydropyridin-1-yl)butyl)-1,4-benzoxazepin-5-one] |  |  |  | 0.3 mg/kg | 

Row | Compound | IC50 [1, 2] | IC50 (dopamine D2 receptor) | IC50 [1] | D2/5-HT1A [1] | minimal effective dose (Wistar male rats) | minimal effective dose (male Wistar rats)
17 | O=C1c2ccccc2OC=C(Cl)N1CCCCN1CC=C(c2ccccn2)CC1 [Example 82] | 0.47 nM | 128 nM |  | 84 | 0.3 mg/kg | 30 mg/kg
